# Laboratory results reported in ChEMBL document CHEMBL4043234, “Anticancer efficacy of p-dodecylaminophenol against high-risk and refractory neuroblastoma cells in vitro and in vivo” (Bioorg Med Chem Lett, 2017).
# Calls of active or inactive are those of the source. The calls are words filed in the database; no cut-off is given here.
# Assays:
# SK-N-AS [1] = assay: Growth inhibition of human SK-N-AS cells at 1 uM after 24 hrs by MTT assay relative to control; format: functional; details: read-out: GI
# SK-N-AS [2] = assay: Growth inhibition of human SK-N-AS cells at 1 uM after 72 hrs by MTT assay relative to control; format: functional; details: read-out: GI
# IMR-32 [3] = assay: Growth inhibition of human IMR32 cells at 0.1 uM after 24 hrs by MTT assay relative to control; format: functional; details: IMR-32, 24 h, read-out: GI
# IMR-32 [4] = assay: Growth inhibition of human IMR32 cells at 0.1 uM after 72 hrs by MTT assay relative to control; format: functional; details: IMR-32, 72 h, read-out: GI
# IMR-32 [5] = assay: Growth inhibition of human IMR32 cells at 0.4 uM after 72 hrs by MTT assay relative to control; format: functional; details: IMR-32, 72 h, read-out: GI
# IMR-32 [6] = assay: Growth inhibition of human IMR32 cells at 0.01 uM after 72 hrs by MTT assay relative to control; format: functional; details: IMR-32, 72 h, read-out: GI
# SK-N-AS [7] = assay: Cell cycle arrest in human SK-N-AS cells assessed as increase in G0/G1 cell population at 0.4 uM after 24 hrs by propidium iodide staining based flow cytometry relative to control; format: functional
# SK-N-AS [8] = assay: Cell cycle arrest in human SK-N-AS cells assessed as increase in G0/G1 cell population at 0.4 uM after 48 hrs by propidium iodide staining based flow cytometry relative to control; format: functional
# SK-N-AS [9] = assay: Cell cycle arrest in human SK-N-AS cells assessed as increase in G0/G1 cell population at 0.4 uM after 72 hrs by propidium iodide staining based flow cytometry relative to control; format: functional
# SK-N-AS [10] = assay: Cell cycle arrest in human SK-N-AS cells assessed as decrease in S phase population at 0.4 uM after 24 hrs by propidium iodide staining based flow cytometry relative to control; format: functional
# SK-N-AS [11] = assay: Cell cycle arrest in human SK-N-AS cells assessed as decrease in S phase population at 0.4 uM after 48 hrs by propidium iodide staining based flow cytometry relative to control; format: functional
# SK-N-AS [12] = assay: Cell cycle arrest in human SK-N-AS cells assessed as decrease in G2/M phase population at 0.4 uM after 48 hrs by propidium iodide staining based flow cytometry relative to control; format: functional
# SK-N-AS [13] = assay: Cell cycle arrest in human SK-N-AS cells assessed as decrease in G2/M phase population at 0.4 uM after 72 hrs by propidium iodide staining based flow cytometry relative to control; format: functional
# SK-N-AS [14] = assay: Cell cycle arrest in human SK-N-AS cells at 4 uM by propidium iodide staining based flow cytometry; format: functional; details: TDE = time-dependent effect
# SK-N-AS [15] = assay: Cell cycle arrest in human SK-N-AS cells assessed as increase in sub-G1 phase population at 0.4 uM after 24 hrs by propidium iodide staining based flow cytometry relative to control; format: functional
# SK-N-AS [16] = assay: Cell cycle arrest in human SK-N-AS cells assessed as increase in sub-G1 phase population at 4 uM after 24 hrs by propidium iodide staining based flow cytometry relative to control; format: functional
# SK-N-AS [17] = assay: Induction of apoptosis in human SK-N-AS cells assessed as increase in caspase-3 activity at 0.4 uM after 8 hrs by CPP32 based colorimetric assay relative to control; format: functional
# SK-N-AS [18] = assay: Induction of apoptosis in human SK-N-AS cells assessed as increase in caspase-3 activity at 4 uM after 8 hrs by CPP32 based colorimetric assay relative to control; format: functional
# SK-N-AS [19] = assay: Induction of apoptosis in human SK-N-AS cells assessed as increase in caspase-3 activity at 0.4 uM after 24 hrs by CPP32 based colorimetric assay relative to control; format: functional
# SK-N-AS [20] = assay: Induction of apoptosis in human SK-N-AS cells assessed as increase in caspase-3 activity at 4 uM after 24 hrs by CPP32 based colorimetric assay relative to control; format: functional
# SK-N-AS [21] = assay: Induction of apoptosis in human SK-N-AS cells assessed as increase in caspase-3 activity at 4 uM by CPP32 based colorimetric assay; format: functional, cell-based; details: TDE = time-dependent effect
# SK-N-AS [22] = assay: Induction of apoptosis in human SK-N-AS cells assessed as decrease in Bcl-2 mRNA expression level after 24 hrs by real-time PCR method; format: functional, cell-based
# SK-N-AS [23] = assay: Induction of apoptosis in human SK-N-AS cells assessed as decrease in Bcl-2 mRNA expression level after 8 hrs by real-time PCR method; format: functional, cell-based
# SK-N-AS [24] = assay: Induction of apoptosis in human SK-N-AS cells assessed as decrease in Bcl-2 mRNA expression level at 0.4 uM after 24 hrs by real-time PCR method relative to control; format: functional; set-up: scale not given: the % may be the effect or the level left
# SK-N-AS [25] = assay: Induction of apoptosis in human SK-N-AS cells assessed as decrease in Bcl-2 mRNA expression level at 4 uM after 24 hrs by real-time PCR method relative to control; format: functional; set-up: scale not given: the % may be the effect or the level left
# IMR-32 [26] = assay: Induction of apoptosis in human IMR32 cells assessed as decrease in Bcl-2 mRNA expression level at 0.4 to 4 uM after 24 hrs by real-time PCR method relative to control; format: functional; set-up: scale not given: the % may be the effect or the level left
# IMR-32 [27] = assay: Induction of apoptosis in human IMR32 cells assessed as decrease in Bcl-2 mRNA expression level at 0.4 to 4 uM after 8 hrs by real-time PCR method; format: functional, cell-based
# IMR-32 [28] = assay: Reduction in N-myc mRNA expression level in human IMR32 cells at 4 uM after 24 hrs by real-time PCR method relative to control; format: functional; set-up: scale not given: the % may be the effect or the level left
# IMR-32 [29] = assay: Reduction in N-myc mRNA expression level in human IMR32 cells at 0.4 to 4 uM after 8 hrs by real-time PCR method; format: functional, cell-based
# SK-N-AS [30] = assay: Antitumor activity against human SK-N-AS cells xenografted in specific-pathogen-free KSN athymic nude mouse assessed as tumor growth inhibition at 12.5 mg/kg/day administered ip for 2 weeks measured on day 21 relative to control; format: functional; details: read-out: TGI
# SK-N-AS [31] = assay: Antitumor activity against human SK-N-AS cells xenografted in specific-pathogen-free KSN athymic nude mouse assessed as tumor growth inhibition at 50 mg/kg/day administered ip for 2 weeks measured on day 21 relative to control; format: functional; details: read-out: TGI
# SK-N-AS [32] = assay: Antitumor activity against human SK-N-AS cells xenografted in specific-pathogen-free KSN athymic nude mouse assessed as decrease in tumor weight at 12.5 mg/kg/day administered ip for 2 weeks measured on day 21 relative to control; format: functional; set-up: scale not given: the % may be the effect or the level left
# SK-N-AS [33] = assay: Antitumor activity against human SK-N-AS cells xenografted in specific-pathogen-free KSN athymic nude mouse assessed as decrease in tumor weight at 50 mg/kg/day administered ip for 2 weeks measured on day 21 relative to control; format: functional; set-up: scale not given: the % may be the effect or the level left
# Mus musculus = assay: Toxicity in specific-pathogen-free KSN athymic nude mouse xenografted with human SK-N-AS cells assessed as change in body weight at 12.5 to 50 mg/kg/day administered ip for 2 weeks measured on day 21; format: organism-based; details: in vivo, 336 h
# SK-N-AS [34] = assay: Cell cycle arrest in human SK-N-AS cells assessed as accumulation at sub-G1 phase at 0.4 uM after 8 hrs by propidium iodide staining based flow cytometry (reference value: 1.13 +/- 0.13%); format: functional
# SK-N-AS [35] = assay: Cell cycle arrest in human SK-N-AS cells assessed as accumulation at sub-G1 phase at 0.4 uM after 48 hrs by propidium iodide staining based flow cytometry (reference value: 1.13 +/- 0.13%); format: functional
# SK-N-AS [36] = assay: Cell cycle arrest in human SK-N-AS cells assessed as accumulation at sub-G1 phase at 0.4 uM after 72 hrs by propidium iodide staining based flow cytometry (reference value: 1.13 +/- 0.13%); format: functional
# SK-N-AS [37] = assay: Cell cycle arrest in human SK-N-AS cells assessed as accumulation at G0/G1 phase at 0.4 uM after 8 hrs by propidium iodide staining based flow cytometry (reference value: 46.14 +/- 3.63%); format: functional
# SK-N-AS [38] = assay: Cell cycle arrest in human SK-N-AS cells assessed as accumulation at S phase at 0.4 uM after 8 hrs by propidium iodide staining based flow cytometry (reference value: 28.55 +/- 0.74%); format: functional
# SK-N-AS [39] = assay: Cell cycle arrest in human SK-N-AS cells assessed as accumulation at S phase at 0.4 uM after 72 hrs by propidium iodide staining based flow cytometry (reference value: 28.55 +/- 0.74%); format: functional
# SK-N-AS [40] = assay: Cell cycle arrest in human SK-N-AS cells assessed as accumulation at G2/M phase at 0.4 uM after 8 hrs by propidium iodide staining based flow cytometry (reference value: 25.31 +/- 2.89%); format: functional
# SK-N-AS [41] = assay: Cell cycle arrest in human SK-N-AS cells assessed as accumulation at G2/M phase at 0.4 uM after 24 hrs by propidium iodide staining based flow cytometry (reference value: 25.31 +/- 2.89%); format: functional
# SK-N-AS [42] = assay: Growth inhibition of human SK-N-AS cells at 4 uM after 24 hrs by MTT assay relative to control; format: functional; details: read-out: GI
# SK-N-AS [43] = assay: Growth inhibition of human SK-N-AS cells at 4 uM after 72 hrs by MTT assay relative to control; format: functional; details: read-out: GI
# SK-N-AS [44] = assay: Cell cycle arrest in human SK-N-AS cells at 4 uM up to 72 hrs by propidium iodide staining based flow cytometry; format: functional
# SK-N-AS [45] = assay: Cell cycle arrest in human SK-N-AS cells assessed as accumulation at sub-G1 phase at 4 uM after 24 hrs by propidium iodide staining based flow cytometry; format: functional
# SK-N-AS [46] = assay: Induction of apoptosis in human SK-N-AS cells assessed as caspase-3 activity at 4 uM after 8 to 24 hrs by CPP32 based colorimetric assay; format: functional, cell-based
# IMR-32 [47] = assay: Induction of apoptosis in human IMR32 cells assessed as decrease in Bcl-2 mRNA expression level at 4 uM after 24 hrs by real-time PCR method relative to control; format: functional; set-up: scale not given: the % may be the effect or the level left
# IMR-32 [48] = assay: Induction of apoptosis in human IMR32 cells assessed as decrease in Bcl-2 mRNA expression level at 4 uM after 8 hrs by real-time PCR method; format: functional, cell-based
# IMR-32 [49] = assay: Reduction in N-myc mRNA expression level in human IMR32 cells at 4 uM after 8 hrs by real-time PCR method; format: functional, cell-based
structure (smiles),measurement,setting,value
CCCCCCCCCCCCNc1ccc(O)cc1,inhibition of growth at 1 µM,SK-N-AS [1],82%
same,inhibition of growth at 1 µM,SK-N-AS [2],83 to 90%
same,inhibition of growth at 0.1 µM,IMR-32 [3],78%
same,inhibition of growth at 0.1 µM,IMR-32 [4],92%
same,inhibition of growth at 0.4 µM,IMR-32 [5],100%
same,inhibition of growth at 0.01 µM,IMR-32 [6],15%
same,fold change (FC),SK-N-AS [7],1.18
same,fold change (FC),SK-N-AS [8],1.18
same,fold change (FC),SK-N-AS [9],1.17
same,fold change (FC),SK-N-AS [10],0.73
same,fold change (FC),SK-N-AS [11],0.89
same,fold change (FC),SK-N-AS [12],0.79
same,fold change (FC),SK-N-AS [13],0.68
same,Activity,SK-N-AS [14],Tde
same,fold change (FC),SK-N-AS [15],3
same,fold change (FC),SK-N-AS [16],23
same,fold change (FC),SK-N-AS [17],1.6
same,fold change (FC),SK-N-AS [18],3.6
same,fold change (FC),SK-N-AS [19],5.3
same,fold change (FC),SK-N-AS [20],12
same,Activity,SK-N-AS [21],Tde
same,Activity,SK-N-AS [22],Dose-dependent effect
same,Activity,SK-N-AS [23],inactive
same,Activity,SK-N-AS [24],35%
same,Activity,SK-N-AS [25],19%
same,Activity,IMR-32 [26],63%
same,Activity,IMR-32 [27],inactive
same,Activity,IMR-32 [28],52%
same,Activity,IMR-32 [29],inactive
same,inhibition in vivo at 12.5 mg/kg/day,SK-N-AS [30],40%
same,inhibition in vivo at 50 mg/kg/day,SK-N-AS [31],58%
same,Activity,SK-N-AS [32],33%
same,Activity,SK-N-AS [33],37%
same,Activity,Mus musculus,Non-Toxic
same,Activity,SK-N-AS [34],1.19%
same,Activity,SK-N-AS [35],5.57%
same,Activity,SK-N-AS [36],9.78%
same,Activity,SK-N-AS [37],47.04%
same,Activity,SK-N-AS [38],22.4%
same,Activity,SK-N-AS [39],28.8%
same,Activity,SK-N-AS [40],30.56%
same,Activity,SK-N-AS [41],24.84%
CCCCCCCCCC(=O)Nc1ccc(O)cc1,inhibition of growth at 4 µM,SK-N-AS [42],5%
same,inhibition of growth at 4 µM,SK-N-AS [43],13%
CC1=C(/C=C/C(C)=C/C=C/C(C)=C/C(=O)O)C(C)(C)CCC1 [TRETINOIN],inhibition of growth at 1 µM,SK-N-AS [1],0%
same,inhibition of growth at 1 µM,SK-N-AS [2],3%
same,inhibition of growth at 0.1 µM,IMR-32 [3],9%
same,inhibition of growth at 0.1 µM,IMR-32 [4],60%
same,inhibition of growth at 0.4 µM,IMR-32 [5],65%
same,inhibition of growth at 0.01 µM,IMR-32 [6],47%
same,Activity,SK-N-AS [44],Active
same,Activity,SK-N-AS [45],Active
same,Activity,SK-N-AS [46],inactive
same,Activity,IMR-32 [47],67%
same,Activity,IMR-32 [48],inactive
same,Activity,IMR-32 [28],13%
same,Activity,IMR-32 [49],inactive
